From patent US5739127A, “2,4'-bridged bis-2,4-diaminoquinazolines” (Bayer Aktiengesellschaft, priority 1996, dated 1998)
pKi: −log10 of the molar value.

Biological target: apamine binding sites (apamine-sensitive potassium channels), bovine cerebral membrane
Test: Binding of 125I-apamine to bovine cerebral membrane
Details: 30 pM 125I-apamine, bovine (calf) hippocampus membranes, 200 μg membrane protein, 60 min on ice
Procedure: The compounds according to the invention are ligands for apamine-sensitive potassium channels. This can be shown by studying the affinity for apamine binding sites, e.g. in bovine cerebral membranes.
1) Binding of^125 I-apamine to bovine cerebral membrane
Calf brains were obtained from the local abattoir. The hippocampus was prepared on ice and a membrane suspension was made up by homogenization twice in buffer (100 mM Tris-HCl, KCl 5 mM, pH 7.4) and centrifugation at 43,000×g. In a total volume of 500 μl, the incubation mixture contained 200 μg of membrane protein, 30 pM ^125 I-apamine and test substances in the concentration range 1×10^-9 to 1×10^-4 M. The non-specific binding of ^125 I-apamine was determined in the presence of 1×10^-7 M unlabelled apamine.
After preincubation for 30 rain at room temperature (test substances and membrane homogenate), the samples were placed on ice for 10 min before the radioligand was added. The main incubation time was 60 min on ice. When the reaction time had elapsed, an excess of ice-cooled incubation buffer was added to each sample and the mixture was filtered with suction through cellulose acetate/nitrate membrane filters. The amount of bound ^125 I-apamine was measured with a gamma counter.

## NC(=O)C1CCCN(c2nc(N3CCC(CNc4nc(N5CCCC5)nc5ccccc45)CC3)nc3ccccc23)C1 (stereo not shown) [Example 5]
  pKi: 6.82
